Data published in patent publication US7678380B2, “Cosmetic treatment method for fighting against skin ageing effects” (LVMH Recherche, priority 1996, dated 2010).
Read-outs that look alike come from different tables or passages of the source.

Test system: adhesion of normal human keratinocytes to type IV collagen
Conditions: for percentage increase in adhesion: compared with control cultures; for A = adhesion in μg of protein per well (mean): keratinocytes of a donor, control 3.52
Method: Coating of the Adhesion Surfaces with Type IV Collagen
Wells of microplates (Falcon) are covered with 6 μg/cm^2 of sterile type IV human collagen (from Sigma).
Each well is then incubated overnight at +4° C. with a 4 mg/ml solution of bovine albumin, BSA, from Sigma.
The wells are then rinsed twice with a phosphate buffer, PBS (phosphate buffered saline), from Gibco.
Preparation of the Cultures of Normal Human Keratinocytes
The skin fragments are incubated in 0.25% w/v trypsin for 18 hours at +4° C. to separate the dermis and epidermis and to obtain, by agitation, a suspension of epidermal cells. The trypsin is neutralized with fetal calf serum, FCS, from Gibco.
The cells are inoculated into flasks defining a surface area of 75 cm^2 and are cultured in keratinocyte proliferation medium, K-SFM, from Gibco, to the point of confluence, when they are subcultured.
The cells used for the experiments for adhesion to the collagen substrate were not subcultured beyond the first subculture (called P0 or P1).
The keratinocytes are then incubated for 30 minutes at +4° C. before the step for adhesion to the substrate coated with collagen IV is carried out.
Measurement of the Adhesion of the Keratinocytes to the Type IV Collagen
The keratinocytes are inoculated into each well at a density of 93,000 cells/cm^2 in E 199 medium from Gibco, containing 2 mM L-glutamine from Gibco and 4 mg/ml of BSA (bovine serum albumin). After incubation for one hour at +4° C., the wells are rinsed with PBS, the adhering cells are then lyzed with 0.1 N sodium hydroxide solution and the cellular proteins are then quantified by means of the calorimetric method and bicinchoninic acid (BCA from Sigma).
A calibration is performed in parallel with BSA solubilized in 0.1 N sodium hydroxide solution, enabling the optical density (OD) values to be converted to micrograms (μg) of proteins per well.
These adhesion values between treated and untreated cells were compared by the 0.7 Student t-test at the p=0.05 threshold in order to assess their level of significance.

Row | SMILES | percentage increase in adhesion (0.25 mM) | A = adhesion in μg of protein per well (mean) (0.25 mM) | A = adhesion in μg of protein per well (mean) (0.5 mM) | percentage increase in adhesion (1 mM) | A = adhesion in μg of protein per well (mean) (1 mM)
1 | N[C@@H](CC(=O)[O-])C(=O)[O-].[Mg+2] [Magnesium aspartate, magnesium aspartate] | +54% | 5.39 μg of protein per well | – | – | –
2 | [Cl-].[Cl-].[Mg+2] [Magnesium chloride, magnesium chloride] | – | 4.32 μg of protein per well | 4.54 μg of protein per well | +31% | 4.57 μg of protein per well
